Experimental findings from patent US9834542B2, “LXR modulators” (BRISTOL-MYERS SQUIBB COMPANY, priority 2013, dated 2017) are described below.

For the assay, the target named is T1, LXRβ (Homo sapiens, UniProt P55055).
T1 construct: Co-transfection expression plasmids, comprising full-length LXRα (pCMX-h LXRα[…] or LXRβ (pCMX-hLXRβ)); expressed in transfected cells; host or cells: CV-1 African Green Monkey Kidney Cells
T1 sequence (P55055 1-460): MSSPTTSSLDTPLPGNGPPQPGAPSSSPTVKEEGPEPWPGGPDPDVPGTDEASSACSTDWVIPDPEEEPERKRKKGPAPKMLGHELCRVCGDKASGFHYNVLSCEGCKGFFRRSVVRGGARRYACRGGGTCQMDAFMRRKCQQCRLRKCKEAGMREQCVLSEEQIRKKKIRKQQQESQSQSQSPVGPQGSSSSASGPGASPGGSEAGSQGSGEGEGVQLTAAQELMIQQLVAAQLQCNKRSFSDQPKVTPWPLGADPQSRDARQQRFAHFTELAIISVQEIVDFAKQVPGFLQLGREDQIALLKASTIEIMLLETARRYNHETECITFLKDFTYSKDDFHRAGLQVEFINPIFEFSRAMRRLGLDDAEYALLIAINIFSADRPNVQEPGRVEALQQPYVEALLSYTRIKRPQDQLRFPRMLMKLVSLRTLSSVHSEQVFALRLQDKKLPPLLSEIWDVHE
T1 sequence (P19793 1-462 partner): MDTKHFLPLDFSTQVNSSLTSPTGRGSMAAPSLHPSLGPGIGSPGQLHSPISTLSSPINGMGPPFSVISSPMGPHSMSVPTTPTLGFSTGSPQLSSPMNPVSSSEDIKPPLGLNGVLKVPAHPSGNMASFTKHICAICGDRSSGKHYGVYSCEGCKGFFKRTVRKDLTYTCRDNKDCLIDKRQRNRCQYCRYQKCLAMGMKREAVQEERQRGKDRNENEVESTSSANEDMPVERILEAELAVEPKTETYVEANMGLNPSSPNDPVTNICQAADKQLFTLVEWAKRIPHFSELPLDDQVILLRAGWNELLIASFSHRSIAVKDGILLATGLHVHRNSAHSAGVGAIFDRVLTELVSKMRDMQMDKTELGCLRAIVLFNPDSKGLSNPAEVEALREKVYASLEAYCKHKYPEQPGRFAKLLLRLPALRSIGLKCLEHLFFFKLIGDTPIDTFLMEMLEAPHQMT
As to the kind of experiment: Co-transfection assay (LXRE luciferase reporter), LXRβ. Particulars: for EC50: CV-1 cells transfected with pCMX-hLXRβ and LXREx1-Tk-Luciferase, 20 hours incubation; for Emax: LXRβ co-transfection, relative to high control 1-(2,4-difluorobenzyl)-2-oxo-6-(4-phenoxyphenyl)-4-(trifluoromethyl)-1,2-dihydropyridine-3-carbonitrile, read-out: % Efficacy. Format: cell-based. In a few lines:
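Luciferase signal from an LXREx1-Tk reporter was measured after transfected CV-1 cells (full-length hLXRβ, endogenous RXR) were treated with compounds for 20 h at 37 °C, ≤0.5% DMSO. EC50 came from four-parameter fits of 11-point ½-log curves; % efficacy versus a reference agonist maximum.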
On the technique in general: In a reporter assay the amount or activity of a reporter protein is the signal.

As usually defined, the EC50 is the concentration giving half of the maximal effect. `COc1ccc(-c2oc(C)nc2-c2cc(-c3cc(F)c(CO)c(S(C)(=O)=O)c3)ccc2-n2cc(C(F)(F)F)nc2C)cn1` [Example 570, (3-fluoro-3′-(5-(6-methoxypyridin-3-yl)-2-methyloxazol-4-yl)-4′-(2-methyl-4-(trifluoromethyl)-1H-imidazol-1-yl)-5-(methylsulfonyl)-[1,1′-biphenyl]-4-yl)methanol]: a half-maximal response (EC50) required 199 nM and the Emax was 93%.

In the case of `Cc1nc(-c2cc(-c3cccc(S(C)(=O)=O)c3)ccc2-n2cc(C(F)(F)F)nc2C)c(-c2ccc(SC(F)(F)F)cc2)o1` [Example 571, 2-methyl-4-(4-(2-methyl-4-(trifluoromethyl)-1H-imidazol-1-yl)-3′-(methylsulfonyl)-[1,1′-biphenyl]-3-yl)-5-(4-((trifluoromethyl)thio)phenyl)oxazole], the EC50 stood at 157 nM and the Emax is 49%.

For `Cc1nc(-c2cc(-c3cccc(S(C)(=O)=O)c3)ccc2-n2cc(C(F)(F)F)nc2C)c(-c2ccc(OC(F)(F)C(F)(F)F)cc2)o1` [Example 572, 2-methyl-4-(4-(2-methyl-4-(trifluoromethyl)-1H-imidazol-1-yl)-3′-(methylsulfonyl)-[1,1′-biphenyl]-3-yl)-5-(4-(perfluoroethoxy)phenyl)oxazole], the EC50 turned out to be 95 nM and the Emax turned out to be 46%.

As for `Cc1nc(-c2cc(-c3cccc(S(C)(=O)=O)c3)ccc2-n2cc(C(F)(F)F)nc2C)c(-c2cccc(OC(F)(F)F)c2)o1` [Example 573, 2-methyl-4-(4-(2-methyl-4-(trifluoromethyl)-1H-imidazol-1-yl)-3′-(methylsulfonyl)-[1,1′-biphenyl]-3-yl)-5-(3-(trifluoromethoxy)phenyl)oxazole], it took 127 nM to reach a half-maximal effect (EC50) and the Emax worked out at 50%.

As to `Cc1nc(-c2cc(-c3cccc(S(C)(=O)=O)c3)ccc2-n2cc(C(F)(F)F)nc2C)c(-c2cccc(OC(F)(F)C(F)(F)F)c2)o1` [Example 574, 2-methyl-4-(4-(2-methyl-4-(trifluoromethyl)-1H-imidazol-1-yl)-3′-(methylsulfonyl)-[1,1′-biphenyl]-3-yl)-5-(3-(perfluoroethoxy)phenyl)oxazole], the EC50 was found to be 233 nM and the Emax is 63%.

With `CCc1nc(-c2ccc(OC(F)(F)F)cc2)c(-c2cc(-c3cc(F)c(CO)c(S(C)(=O)=O)c3)ccc2-n2cc(C(F)(F)F)nc2C)o1` [Example 600, {3′-(2-ethyl-4-{4-[(trifluoromethyl)oxy]phenyl}-1,3-oxazol-5-yl)-3-fluoro-5-(methylsulfonyl)-4′-[2-methyl-4-(trifluoromethyl)-1H-imidazol-1-yl]biphenyl-4-yl}methanol], a half-maximal effect (EC50) was put at 20 nM and the Emax worked out at 101%.

With `Cc1nc(C(F)(F)F)cn1-c1ccc(-c2cc(F)c(CO)c(S(C)(=O)=O)c2)cc1-c1oc(C(C)C)nc1-c1ccc(OC(F)(F)F)cc1` [Example 601, {3-fluoro-3′-[2-(1-methylethyl)-4-{4-[(trifluoromethyl)oxy]phenyl}-1,3-oxazol-5-yl]-5-(methylsulfonyl)-4′-[2-methyl-4-(trifluoromethyl)-1H-imidazol-1-yl]biphenyl-4-yl}methanol], the EC50 was 30 nM and the Emax was determined as 74%.

As to `CCCc1nc(-c2ccc(OC(F)(F)F)cc2)c(-c2cc(-c3cccc(S(C)(=O)=O)c3)ccc2-n2cc(C(F)(F)F)nc2C)o1` [Example 602, 5-{3′-(methylsulfonyl)-4-[2-methyl-4-(trifluoromethyl)-1H-imidazol-1-yl]biphenyl-3-yl}-2-propyl-4-{4-[(trifluoromethyl)oxy]phenyl}-1,3-oxazole], the EC50 came to 25 nM and the Emax amounted to 87%.

Turning to `Cc1nc(-c2ccc(OC(F)(F)F)cc2)c(-c2cc(-c3cc(F)c(CO)c(S(C)(=O)=O)c3)ccc2-n2cc(C(F)(F)F)nc2C)o1` [Example 603, (3-fluoro-3′-(2-methyl-4-(4-(trifluoromethoxy)phenyl)oxazol-5-yl)-4′-(2-methyl-4-(trifluoromethyl)-1H-imidazol-1-yl)-5-(methylsulfonyl)-[1,1′-biphenyl]-4-yl)methanol], the EC50 turned out to be 40 nM and the Emax is 91%.

On to `Cc1nc(-c2ccc(OC(F)(F)F)cc2)c(-c2cc(-c3cccc(S(C)(=O)=O)c3)ccc2-n2cc(C(F)(F)F)nc2C)o1` [Example 604, 2-methyl-5-(4-(2-methyl-4-(trifluoromethyl)-1H-imidazol-1-yl)-3′-(methylsulfonyl)-[1,1′-biphenyl]-3-yl)-4-(4-(trifluoromethoxy)phenyl)oxazole], for which the EC50 stood at 54 nM and the Emax turned out to be 86%.

Turning to `Cc1nc(-c2ccc(Cl)cc2)c(-c2cc(-c3cccc(S(C)(=O)=O)c3)ccc2-n2cc(C(F)(F)F)nc2C)o1` [Example 605, 4-(4-chlorophenyl)-2-methyl-5-(4-(2-methyl-4-(trifluoromethyl)-1H-imidazol-1-yl)-3′-(methylsulfonyl)-[1,1′-biphenyl]-3-yl)oxazole], a half-maximal response (EC50) required 91 nM and the Emax was found to be 89%.

Consider `Cc1nc(-c2ccc(Cl)cc2)c(-c2cc(-c3cc(F)c(CO)c(S(C)(=O)=O)c3)ccc2-n2cc(C(F)(F)F)nc2C)o1` [Example 606, (3′-(4-(4-chlorophenyl)-2-methyloxazol-5-yl)-3-fluoro-4′-(2-methyl-4-(trifluoromethyl)-1H-imidazol-1-yl)-5-(methylsulfonyl)-[1,1′-biphenyl]-4-yl)methanol], for which the EC50 was determined as 52 nM and the Emax came out at 79%.

For `Cc1nc(-c2ccc(OC(F)(F)F)cc2)c(-c2cc(-c3ccc(CO)c(S(C)(=O)=O)c3)ccc2-n2cc(C(F)(F)F)nc2C)o1` [Example 607, (3′-(2-methyl-4-(4-(trifluoromethoxy)phenyl)oxazol-5-yl)-4′-(2-methyl-4-(trifluoromethyl)-1H-imidazol-1-yl)-3-(methylsulfonyl)-[1,1′-biphenyl]-4-yl)methanol], the EC50 amounted to 46 nM and the Emax amounted to 92%.

As to `Cc1nc(-c2ccc(Cl)cc2Cl)c(-c2cc(-c3cccc(S(C)(=O)=O)c3)ccc2-n2cc(C(F)(F)F)nc2C)o1` [Example 608, 4-(2,4-dichlorophenyl)-2-methyl-5-(4-(2-methyl-4-(trifluoromethyl)-1H-imidazol-1-yl)-3′-(methylsulfonyl)-[1,1′-biphenyl]-3-yl)oxazole], the EC50 turned out to be 90 nM and the Emax is 100%.

Consider `Cc1nc(-c2ccc(Cl)cc2Cl)c(-c2cc(-c3cc(F)c(CO)c(S(C)(=O)=O)c3)ccc2-n2cc(C(F)(F)F)nc2C)o1` [Example 609, (3′-(4-(2,4-dichlorophenyl)-2-methyloxazol-5-yl)-3-fluoro-4′-(2-methyl-4-(trifluoromethyl)-1H-imidazol-1-yl)-5-(methylsulfonyl)-[1,1′-biphenyl]-4-yl)methanol], for which the EC50 is 36 nM and the Emax came out at 91%.

Turning to `Cc1nc(C(F)(F)F)cn1-c1ccc(-c2cccc(S(C)(=O)=O)c2)cc1-c1oc(CC(=O)O)nc1-c1ccc(OC(F)(F)F)cc1` [Example 610, 2-(5-(4-(2-methyl-4-(trifluoromethyl)-1H-imidazol-1-yl)-3′-(methylsulfonyl)-[1,1′-biphenyl]-3-yl)-4-(4-(trifluoromethoxy)phenyl)oxazol-2-yl)acetic acid], the EC50 came to 257 nM and the Emax was found to be 94%.

Take `Cc1nc(C(F)(F)F)cn1-c1ccc(-c2cccc(S(C)(=O)=O)c2)cc1-c1oc(CCO)nc1-c1ccc(OC(F)(F)F)cc1` [Example 611, 2-(5-(4-(2-methyl-4-(trifluoromethyl)-1H-imidazol-1-yl)-3′-(methylsulfonyl)-[1,1′-biphenyl]-3-yl)-4-(4-(trifluoromethoxy)phenyl)oxazol-2-yl)ethanol]: the EC50 came to 554 nM and the Emax came to 62%.

In the case of `Cc1nc(C(F)(F)F)cn1-c1ccc(-c2cc(F)c(CO)c(S(C)(=O)=O)c2)cc1-c1oc(CCO)nc1-c1ccc(OC(F)(F)F)cc1` [Example 612, 2-(5-(3′-fluoro-4′-(hydroxymethyl)-4-(2-methyl-4-(trifluoromethyl)-1H-imidazol-1-yl)-5′-(methylsulfonyl)-[1,1′-biphenyl]-3-yl)-4-(4-(trifluoromethoxy)phenyl)oxazol-2-yl)ethanol], a half-maximal response (EC50) required 517 nM and the Emax came to 64%.
